Read-outs that look alike come from different tables or passages of the source.
What was measured:
[1] = biological target: human D2 dopamine receptors (Homo sapiens (Human), UniProt P14416); test: Whole Cell Adenylyl Cyclase Assay, D2; format: cell-based; conditions: inhibition of forskolin (100 μM) stimulated cAMP, normalized to quinpirole; compound conc ≥10× Ki (per compound); mean ± S.E.M.
Procedure: (§1) The intrinsic activity of the compounds was evaluated by determining their ability to inhibit forskolin-dependent (100 μM) stimulation of adenylyl cyclase activity using a whole cell assay. A whole cell-cyclic AMP accumulation assay was performed with stably transfected HEK cells expressing human D2 or D3 dopamine receptors. This assay is an adaptation of an earlier published method (Su et al., Cyclic Nucleotide Res. 1976, 2, 257-285). Details regarding this method have been published (Chu, W. et al. Bioorg. Med. Chem. 2005, 13, 77-87; Taylor, M. et al. Synapse 2010, 64, 251-266). Confluent (60-80%) HEK cells transfected with recombinant D2-like dopamine receptors were grown in DMEM/10% fetal calf serum containing geneticin in […] flasks. The endogenous ATP pool is radioactively labeled by preincubating the cells in serum-free DMEM/25 mM Hepes medium containing 2 μCi/mL of [2,8-^3H]-adenine (20-Ci/mmol) in a 5% CO2 incubator at 37° C. for 75 min. The radioactive medium was removed by aspiration. Serum-free DMEM (5.6 mL) containing 25 mM HEPES, pH 7.4, and 0.1 mM of the phosphodiesterase inhibitor isobutylmethylxanthine was added to the flask. A […] aliquot of cells was removed and added to 50 μL of forskolin (100 μM) and 50 μL of test drug or quinpirole in DMEM-HEPES. The cells were incubated for 20 min at 37° C. (vortexing every 5 min). The reaction was terminated by the addition of 0.5 mL of 10% trichloroacetic acid (w/v) containing 1.0 mM unlabeled cyclic AMP as a recovery standard. Both the [^3H]-cyclic AMP and the [^3H]-ATP fractions were collected following separation using columns of Dowex AG-50W-X4 and alumina. The final yield of [^3H]-cyclic AMP is corrected for column recovery of unlabeled cyclic AMP determined spectrophotometrically (OD259). The results are reported as percent conversion of [^3H]-ATP into [^3H]-cyclic AMP. The values for the percent inhibition are reported as the actual percent of inhibition of the ^3H-cAMP accumulation relative to the assay performed in the absence of a test compound, minus basal activity. […] The percent maximum response is the value for the inhibition normalized to the value for the full agonist quinpirole.

[2] = biological target: human D2-long dopamine receptor (Homo sapiens (Human), UniProt P14416); test: Radioligand binding (125I-IABN competition), D2; conditions: HEK cell membranes expressing human D2-long
Procedure: (§2) The affinities of the target compounds were determined using radioligand binding experiments. […] Competition curves were modeled for a single site. Data from competition dose-response curves were analyzed using Tablecurve program (Jandel). IC50 values were converted to equilibrium dissociation constants (Ki values) using the Cheng and Prusoff correction.

[3] = biological target: T1, human D3 dopamine receptor (Homo sapiens (Human), UniProt P35462); test: Whole Cell Adenylyl Cyclase Assay, D3; format: cell-based; conditions: inhibition of forskolin (100 μM) stimulated cAMP, normalized to quinpirole; compound conc ≥10× Ki (per compound); mean ± S.E.M.
Procedure: as §1

[4] = biological target: T1, human D3 dopamine receptor; test: Radioligand binding (125I-IABN competition), D3; conditions: for Ki: 125I-IABN competition, HEK cell membranes expressing human D3; for D2/D3 (D3 selectivity ratio, D2 Ki/D3 Ki): calculated D2 Ki/D3 Ki
Procedure: as §2

D3R = D3R (Homo sapiens (Human), UniProt P35462); test: D3 Mitogenesis Functional Assay (3H-thymidine uptake, CHOp-D3 cells); format: cell-based; conditions: for Emax at 10 µM: % maximum stimulation vs quinpirole (100%), read-out: D3 Agonist Emax; for D3 Antagonist Imax: inhibition of quinpirole stimulation of mitogenesis; for IC50: read-out: D3 Antagonist IC50
Procedure: (§3) These assays are based on ^3H-thymidine uptake by cells that are proliferating.
CHO cells expressing human D3 receptors (CHOp-D3 cells) were maintained in alpha-MEM with 10% fetal bovine serum (FBS, Atlas Biologicals), 0.05% pen-strep, and 200 μg/ml of G418. […] The cells are incubated at 37° C. in alpha-MEM with 10% FBS. After 48-72 hours, the cells are rinsed twice with serum-free alpha-MEM and incubated for 24 hours at 37° C. Serial dilutions of test compounds were made by the Biomek robotics system in serum-free alpha-MEM. In the functional assay for agonism, the medium is removed and replaced with 100 μL of test compound in serum-free alpha-MEM. In the antagonist assay, the serial dilution of the putative antagonist test compound was added in 90 μL (1.1× of final concentration) and 300 nM quinpirole (30 nM final) was added in 10 uL. After another 16-hour incubation at 37° C., 0.25 μCi of [^3H]thymidine in alpha-MEM supplemented with 10% FBS was added to each well and the plates were further incubated for 2 hours at 37° C. The cells were trypsinized by addition of 10× trypsin solution (1% trypsin in calcium-magnesium-free phosphate-buffered saline) and the plates were filtered and counted as usual. Quinpirole was run as an internal control and dopamine was included for comparative purposes. Butaclamol was run as the standard antagonist. Data were analyzed using GraphPAD Prism and agonist potency was expressed as EC50 values or % stimulation and antagonist potency was expressed as IC50 values. In these assays, based on the % maximum stimulation as compared to the standard agonist quinpirole (100%) the compounds were classified into following categories: ≧90% full agonist; 70-90% partial to full agonist; <70% partial agonist; 0-20% potential antagonist.

human D2 receptors = human D2 receptors (Homo sapiens (Human), UniProt P14416); test: D2 Mitogenesis Functional Assay (3H-thymidine uptake, CHOp-D2 cells); format: cell-based; conditions: for Emax at 10 µM: % maximum stimulation vs quinpirole (100%), read-out: D2 Agonist Emax; for Emax at 10 µM / D2 Antagonist Imax: at 10 μM; for D2 Antagonist Imax: inhibition of quinpirole stimulation of mitogenesis; for IC50: read-out: D2 Antagonist IC50
Procedure: as §3
CHO cells expressing human D2 receptors (CHOp-D2 cells) were maintained in alpha-MEM with 10% FCS, 0.05% pen-strep, and 200 μg/mL of G418. […] The cells were incubated at 37° C. in alpha-MEM with 10% FCS. After 48-72 hours, the cells were rinsed twice with serum-free alpha-MEM and incubated for 24 hours at 37° C. Serial dilutions of test compounds were made by the Biomek robotics system in serum-free alpha-MEM. In the functional assay for agonism, the medium was removed and replaced with 100 μL of test compound in serum-free alpha-MEM. In the antagonist assay, the serial dilution of the putative antagonist test compound was added in 90 μL (1.1× of final concentration) and 300 nM quinpirole (30 nM final) was added in […]. After another 24-hour incubation at 37° C., 0.25 μCi of [^3H]thymidine in alpha-MEM supplemented with 10% FCS was added to each well and the plates were further incubated for 2 hours at 37° C. The cells were trypsinized by addition of 10× trypsin solution (1% trypsin in calcium-magnesium-free phosphate-buffered saline) and the plates were filtered and counted as usual. Quinpirole was run as an internal control and dopamine was included for comparative purposes. Butaclamol was run as the standard antagonist.

[5] = inhibition of quinpirole (30 nM final) stimulation of mitogenesis

Sequence of D3R (P35462 whole entry): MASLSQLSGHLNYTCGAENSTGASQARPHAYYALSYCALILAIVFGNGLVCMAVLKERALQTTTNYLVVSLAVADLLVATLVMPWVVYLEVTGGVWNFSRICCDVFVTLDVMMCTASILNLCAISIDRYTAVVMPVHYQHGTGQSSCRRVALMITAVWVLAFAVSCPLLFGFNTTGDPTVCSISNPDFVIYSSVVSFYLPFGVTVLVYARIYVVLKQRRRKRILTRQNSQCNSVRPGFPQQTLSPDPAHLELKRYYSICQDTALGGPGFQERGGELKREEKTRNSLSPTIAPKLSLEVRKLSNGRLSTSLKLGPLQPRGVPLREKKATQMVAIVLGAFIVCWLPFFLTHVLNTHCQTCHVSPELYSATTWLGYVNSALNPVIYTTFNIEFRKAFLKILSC
T1 sequence (P35462 whole entry): as above
Sequence of human D2 receptors (P14416 whole entry): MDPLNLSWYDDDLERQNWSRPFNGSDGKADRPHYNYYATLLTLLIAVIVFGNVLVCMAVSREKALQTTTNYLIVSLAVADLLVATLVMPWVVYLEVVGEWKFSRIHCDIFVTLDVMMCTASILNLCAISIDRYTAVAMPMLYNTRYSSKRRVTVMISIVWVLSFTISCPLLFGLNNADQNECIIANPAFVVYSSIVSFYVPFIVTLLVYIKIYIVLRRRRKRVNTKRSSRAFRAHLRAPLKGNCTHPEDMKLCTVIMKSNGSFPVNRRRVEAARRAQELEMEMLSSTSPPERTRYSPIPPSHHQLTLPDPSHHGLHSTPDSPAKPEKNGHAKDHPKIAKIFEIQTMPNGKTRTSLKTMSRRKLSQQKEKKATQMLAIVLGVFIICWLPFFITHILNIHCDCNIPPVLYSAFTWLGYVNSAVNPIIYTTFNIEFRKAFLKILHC
Sequence of human D2-long dopamine receptor (P14416 whole entry): as above
Sequence of human D2 dopamine receptors (P14416 whole entry): as above

SMILES | D2 Cyclase % Inhibition Normalized [1] [%] | Ki [2] [nM] | D3 Cyclase % Inhibition Normalized [3] [%] | Ki [4] [nM] | D2/D3 (D3 selectivity ratio, D2 Ki/D3 Ki) [4] | EC50 (D3R; CHOp-D3 cells, stimulation of mitogenesis, read-out: D3 Agonist EC50) [nM] | Emax at 10 µM (D3R) [%] | D3 Antagonist Imax (D3R) [%] | IC50 (D3R) [nM] | EC50 (human D2 receptors; CHOp-D2 cells, stimulation of mitogenesis, read-out: D2 Agonist EC50) [nM] | Emax at 10 µM (human D2 receptors) [%] | D2 Antagonist Imax (human D2 receptors) [% at 10 μM] | IC50 (human D2 receptors) [nM] | IC50 (D3R; [5]) [nM] | IC50 (human D2 receptors; [5]) [nM]
O=C(NCCCCN1CCN(c2ccccc2)CC1)N1CCN(c2ccccc2)CC1 [Compound 1, 4-Phenyl-N-(4-(4-phenylpiperazin-1-yl)butyl)piperazine-1-carboxamide] | 91.4 ± 2.4 | 124 ± 26.2 | 48.3 ± 9.4 | 2 ± 0.2 | 62 |  |  |  |  |  |  |  |  |  | 
Cc1nc(N2CCN(CCCCNC(=O)N3CCN(c4ccccc4)CC3)CC2)cc(C(C)(C)C)n1 [Compound 6, N-(4-(4-(6-(tert-Butyl)-2-methylpyrimidin-4-yl)piperazin-1-yl)butyl)-4-phenylpiperazine-1-carboxamide] |  | 12900 ± 2510 | 26.4 ± 4.6 | 29.2 ± 5.3 | 442 |  |  |  |  |  |  |  |  |  | 
CC(C)(C)c1nc(N2CCN(CCCCNC(=O)N3CCN(c4ccccc4)CC3)CC2)c2ccccc2n1 [Compound 13, N-(4-(4-(2-(tert-Butyl)quinazolin-4-yl)piperazin-1-yl)butyl)-4-phenylpiperazine-1-carboxamide] |  | 4040 ± 965 | 61.9 ± 6.4 | 43.1 ± 4.8 | 94 |  |  |  |  |  |  |  |  |  | 
CC(C)(C)c1nc(N2CCN(CCCCNC(=O)N3CCN(c4ncccn4)CC3)CC2)cc(C(F)(F)F)n1 [Compound 32, N-(4-(4-(2-(tert-Butyl)-6-(trifluoromethyl)pyrimidin-4-yl)piperazin-1-yl)butyl)-4-(pyrimidin-2-yl)piperazine-1-carboxamide] |  | 1190 ± 67.4 | 40.8 ± 9.7 | 13.7 ± 3.1 | 87 | > 10000 | < 8 | 84.4 | 195 ± 39 | > 10000 | < 1 | 100 | 257 ± 90 |  | 
O=C(NCCCCN1CCN(c2cccc(Cl)c2Cl)CC1)N1CCC(c2ccccc2)CC1 [Compound 47, N-(4-(4-(2,3-Dichlorophenyl)piperazin-1-yl)butyl)-4-phenylpiperidine-1-carboxamide] |  | 102 ± 11 | 78.9 ± 17.1 | 1.9 ± 0.4 | 53 |  | < 20 | 96.8 | 40 ± 15 |  | < 20 | 98.5 | 286 ± 27 |  | 
CC(C)(C)c1nc(N2CCN(CCCCNC(=O)C3CCC(c4ccccc4)CC3)CC2)cc(C(F)(F)F)n1 (stereo not drawn) [Compound 103, N-(4-(4-(2-(tert-Butyl)-6-(trifluoromethyl)pyrimidin-4-yl)piperazin-1-yl)butyl)-4-phenylcyclohexanecarboxamide] |  |  | 51.6 ± 13.4 |  |  |  |  |  |  |  |  |  |  |  | 
CC(C)(C)c1nc(N2CCN(CCCCNC(=O)c3cn4ccncc4n3)CC2)cc(C(F)(F)F)n1 [Compound 115, N-(4-(4-(2-(tert-Butyl)-6-(trifluoromethyl)pyrimidin-4-yl)piperazin-1-yl)butyl)imidazo[1,2-a]pyrazine-2-carboxamide] |  | 450 | 37.8 ± 5.4 | 8 ± 1.6 | 56 |  | < 20 | 94.7 |  |  | < 20 | 96.6 |  | 245 ± 33 | 420 ± 120
CC(C)(C)c1nc(N2CCN(CCCCNC(=O)c3cn4nc(Cl)ccc4n3)CC2)cc(C(F)(F)F)n1 [Compound 116, N-(4-(4-(2-(tert-Butyl)-6-(trifluoromethyl)pyrimidin-4-yl)piperazin-1-yl)butyl)-6-chloroimidazo[1,2-b]pyridazine-2-carboxamide] |  | 655 ± 80.6 | 31.5 ± 7.0 |  |  |  | < 1 |  |  |  | < 1 |  |  |  | 1160 ± 110
